These results are taken from article PMC7335359, “Design and Synthesis of Dihydroxamic Acids as HDAC6/8/10 Inhibitors” (Chemmedchem, 2020).

This test has as its target T1, HDAC6 (Homo sapiens, UniProt Q9UBN7).
T1 construct: purchased BPS Bioscience 50006
T1 sequence (Q9UBN7 1-1215): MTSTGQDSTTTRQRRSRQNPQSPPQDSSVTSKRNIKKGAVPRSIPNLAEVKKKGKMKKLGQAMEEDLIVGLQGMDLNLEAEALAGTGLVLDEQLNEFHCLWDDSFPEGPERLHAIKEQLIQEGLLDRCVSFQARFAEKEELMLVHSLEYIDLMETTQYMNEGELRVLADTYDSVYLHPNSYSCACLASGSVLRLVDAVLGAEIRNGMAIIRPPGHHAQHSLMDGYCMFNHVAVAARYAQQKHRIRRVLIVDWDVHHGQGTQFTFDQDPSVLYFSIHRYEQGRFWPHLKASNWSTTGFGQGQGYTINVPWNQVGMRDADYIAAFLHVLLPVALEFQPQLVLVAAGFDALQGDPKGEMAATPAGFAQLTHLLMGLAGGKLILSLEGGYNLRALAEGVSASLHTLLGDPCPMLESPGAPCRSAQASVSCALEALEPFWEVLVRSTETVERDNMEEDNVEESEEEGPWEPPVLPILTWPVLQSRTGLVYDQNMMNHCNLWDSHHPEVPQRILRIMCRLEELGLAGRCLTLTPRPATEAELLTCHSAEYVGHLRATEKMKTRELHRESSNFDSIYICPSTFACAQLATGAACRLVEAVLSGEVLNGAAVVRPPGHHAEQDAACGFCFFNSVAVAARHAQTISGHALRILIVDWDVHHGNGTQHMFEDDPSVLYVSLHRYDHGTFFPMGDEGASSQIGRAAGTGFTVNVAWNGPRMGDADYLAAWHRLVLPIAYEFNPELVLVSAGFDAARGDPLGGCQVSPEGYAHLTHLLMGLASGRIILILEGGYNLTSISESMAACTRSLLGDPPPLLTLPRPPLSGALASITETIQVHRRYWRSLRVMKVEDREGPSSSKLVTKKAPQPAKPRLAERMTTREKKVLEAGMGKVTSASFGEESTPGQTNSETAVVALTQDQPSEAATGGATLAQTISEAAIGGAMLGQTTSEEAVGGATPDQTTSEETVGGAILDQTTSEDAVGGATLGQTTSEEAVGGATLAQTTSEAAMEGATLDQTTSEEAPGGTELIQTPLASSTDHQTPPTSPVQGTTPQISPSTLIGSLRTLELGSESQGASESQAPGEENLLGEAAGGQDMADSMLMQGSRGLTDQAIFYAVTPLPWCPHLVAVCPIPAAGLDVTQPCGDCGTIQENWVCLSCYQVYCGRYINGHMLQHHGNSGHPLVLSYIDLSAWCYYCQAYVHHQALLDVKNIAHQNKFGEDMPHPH
Kind of test: HDAC-Glo I/II enzymatic assay, HDAC6. Format: biochemical. The note with it: read-out: HDAC6 pIC50 (converted). As to the method:
Inhibitors were tested at eight serial dilutions in triplicate ranging from 50 μM–86,7 pM (HDAC6) or 100 μM–8,67 nM (HDAC1,2,3,8). Drug dosing was performed from 10 mM and 0.1 mM DMSO stock solutions with a D300e Digital Dispenser (Tecan). HDACs (7 ng/mL for HDAC1, 10 ng/mL for HDAC2, 200 ng/mL for HDAC3/Ncor2 complex, 100 ng/mL for HDAC6, 200 ng/mL for HDAC8) and inhibitors were incubated together for 30 min at room temperature. After addition of the HDAC‐Glo™ I/II reagent, plates were shaken (800 rpm orbital shaker, 30 s), centrifuged (300 g, 1 min) and incubated at room temperature for 30 min. Luminescence was detected with a CLARIOstar (BMG Labtech) plate reader.
For `CN(C)CCn1cc(Cc2ccc(C(=O)NO)cc2)c2cc(C(=O)NO)ccc21` [Compound 3e], the IC50 was 44.7 nM.

On to `CN1CCc2c(c3ccc(C(=O)NO)cc3n2Cc2ccc(C(=O)NO)cc2)C1` [Compound 3c], for which the IC50 was 47.9 nM.

As to `CN(C)Cc1cn(Cc2ccc(C(=O)NO)cc2)c2cc(C(=O)NO)ccc12` [Compound 3b], the IC50 was 75.9 nM.

Consider `O=C(NO)c1ccc(Cn2ccc3ccc(C(=O)NO)cc32)cc1` [Compound 3a], for which the IC50 was 18.2 nM.

Regarding `O=C(NO)c1ccc(Cn2ncc3ccc(C(=O)NO)cc32)cc1` [Compound 3f], the IC50 is 15.1 nM.

As for `CN(C)Cc1nn(Cc2ccc(C(=O)NO)cc2)c2cc(C(=O)NO)ccc12` [Compound 3g], the IC50 is 30.2 nM.

With `O=C(NO)c1ccc(Cc2c[nH]c3ccc(C(=O)NO)cc23)cc1` [Compound 3d], the IC50 is 22.4 nM.
